In brackets after ≈: the same amount, converted by molar mass. Activity calls are given as the source filed them. The rule behind the calls is not given here.

The first assay relates to Thymidine kinase (Human herpesvirus 1). Put plainly: Percentage of monophosphates (MP) formed in the first step of staggered assay compound was incubated with HSV-1 thymidine kinase for 4 hr.
Conditions: not given
The molecule `Nc1ncnc2c1ncn2C/C=C\CO` returned an MP of 0%.

The subject of a further assay is HeLa. The assay is described as follows: (§1) Percentage of triphosphates (TP) in the second step of staggered assay mixture from step 1 was incubated with GMP kinase and crude extract of HSV-1 infected HeLa cells over night. Format: functional, Homo sapiens.
Conditions: not given
Regarding `Nc1nc(O)c2ncn(CC=C(CO)CO)c2n1`, the TP is 25%.

For a further assay, the target named is T1, DNA polymerase catalytic subunit (Herpes simplex virus (type 1 / strain 17)) (UniProt P04293).
T1 sequence (whole entry): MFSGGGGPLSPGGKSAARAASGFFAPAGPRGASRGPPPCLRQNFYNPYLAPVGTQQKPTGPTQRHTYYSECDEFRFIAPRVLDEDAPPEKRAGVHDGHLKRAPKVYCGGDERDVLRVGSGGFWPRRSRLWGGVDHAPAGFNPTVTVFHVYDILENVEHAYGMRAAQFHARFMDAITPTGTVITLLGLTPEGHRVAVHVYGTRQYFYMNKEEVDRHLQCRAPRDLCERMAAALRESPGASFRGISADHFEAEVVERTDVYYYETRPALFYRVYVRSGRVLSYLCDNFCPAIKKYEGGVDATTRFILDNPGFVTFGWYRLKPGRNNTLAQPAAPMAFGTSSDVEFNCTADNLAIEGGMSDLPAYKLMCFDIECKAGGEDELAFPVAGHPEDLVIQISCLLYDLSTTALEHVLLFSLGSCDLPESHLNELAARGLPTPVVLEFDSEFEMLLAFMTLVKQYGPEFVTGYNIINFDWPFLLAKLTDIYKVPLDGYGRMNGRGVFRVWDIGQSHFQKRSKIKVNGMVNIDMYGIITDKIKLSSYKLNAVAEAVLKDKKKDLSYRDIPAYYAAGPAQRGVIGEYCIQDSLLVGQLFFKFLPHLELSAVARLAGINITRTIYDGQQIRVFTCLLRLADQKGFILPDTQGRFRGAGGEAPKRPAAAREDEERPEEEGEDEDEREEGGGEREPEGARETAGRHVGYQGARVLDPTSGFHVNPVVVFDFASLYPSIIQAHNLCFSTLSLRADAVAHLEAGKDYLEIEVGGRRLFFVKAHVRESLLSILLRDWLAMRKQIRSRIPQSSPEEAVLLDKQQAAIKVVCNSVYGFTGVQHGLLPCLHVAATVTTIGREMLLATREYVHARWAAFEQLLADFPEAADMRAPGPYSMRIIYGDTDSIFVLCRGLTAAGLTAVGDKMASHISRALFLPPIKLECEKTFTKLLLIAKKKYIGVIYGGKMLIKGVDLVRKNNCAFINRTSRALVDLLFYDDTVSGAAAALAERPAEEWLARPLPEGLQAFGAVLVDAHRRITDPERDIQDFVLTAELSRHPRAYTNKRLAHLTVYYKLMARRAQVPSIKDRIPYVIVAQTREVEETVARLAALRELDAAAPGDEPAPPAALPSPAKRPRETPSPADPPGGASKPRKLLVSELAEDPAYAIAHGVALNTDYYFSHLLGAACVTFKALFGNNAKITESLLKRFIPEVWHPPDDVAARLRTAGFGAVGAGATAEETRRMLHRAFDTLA
Put plainly: Percentage of monophosphates (MP) in the second step of staggered assay mixture from step 1 was incubated with GMP kinase and crude extract of HSV-1 infected HeLa cells over night. In kind it is functional, cell-based.
Conditions: not given
Regarding `Nc1nc2c(ncn2CCCCO)c(=O)[nH]1`, the MP was found to be 0%.
On the same count and under the same terms, the figure for `Nc1nc2c(ncn2COC(CO)CO)c(=O)[nH]1` [GANCICLOVIR] is 3%; for `Nc1nc(O)c(N=O)c(NC[C@H]2C[C@H]2CO)n1` it is 0%.
Same read-out and setting: the figure for `Nc1nc(O)c2ncn(CCC(CO)CO)c2n1` [PENCICLOVIR] is 3%.
Still for that read-out and setting: the figure for `Nc1ncnc2c1ncn2CC1CC1(CO)CO` (stereo unspecified) is 0%; for `Nc1nc(O)c2nnn(C[C@H]3C[C@H]3CO)c2n1` it is 2%; for `Nc1nc(O)c2ncn(CC=C(CO)CO)c2n1` it is 0%.
For `Nc1ncnc2c1ncn2C[C@H]1C[C@H]1CO`, the MP came out at 0%.
On the same count and under the same terms, the value for `Cc1cn(C[C@H]2C[C@H]2CO)c(=O)[nH]c1=O` was 23%.
On to `Nc1ncnc2c1ncn2C/C=C\CO`, for which the MP is 0%.

A further assay deals with T1, DNA polymerase catalytic subunit (Herpes simplex virus (type 1 / strain 17)). Put plainly: Percentage of diphosphates (DP) in the second step of staggered assay mixture from step 1 was incubated with GMP kinase and crude extract of HSV-1 infected HeLa cells over night. Format: functional, cell-based.
Conditions: not given
On to `Nc1nc2c(ncn2CCCCO)c(=O)[nH]1`, for which the DP worked out at 10%.
Same read-out and setting: the value for `Nc1nc2c(ncn2COC(CO)CO)c(=O)[nH]1` [GANCICLOVIR] was 10%; that for `Nc1nc(O)c(N=O)c(NC[C@H]2C[C@H]2CO)n1` was 0%.
As to `Nc1nc(O)c2ncn(CCC(CO)CO)c2n1` [PENCICLOVIR], the DP was found to be 13%.
Still for that read-out and setting: the value for `Nc1ncnc2c1ncn2CC1CC1(CO)CO` (stereo unspecified) was 0%; that for `Nc1nc(O)c2nnn(C[C@H]3C[C@H]3CO)c2n1` was 41%; that for `Nc1nc(O)c2ncn(CC=C(CO)CO)c2n1` was 9%.
Same read-out and setting: the figure for `Nc1ncnc2c1ncn2C[C@H]1C[C@H]1CO` is 0%; for `Cc1cn(C[C@H]2C[C@H]2CO)c(=O)[nH]c1=O` it is 0%.
On the same count and under the same terms, the figure for `Nc1ncnc2c1ncn2C/C=C\CO` is 0%.

System in a further assay: not listed separately
Put plainly: (§2) Inhibition of DNA polymerase. Also noted: concentration or dose not given beside the values. The note with it: concentration not given here.
As for `Nc1nc2c(ncn2CCCCO)c(=O)[nH]1`, the inhibition is 20%.
Still for that read-out and setting: the figure for `Nc1nc2c(ncn2COC(CO)CO)c(=O)[nH]1` [GANCICLOVIR] is 22%; for `Nc1nc(O)c(N=O)c(NC[C@H]2C[C@H]2CO)n1` it is 0%.
The same measure, in the same setting: the figure for `Nc1nc(O)c2ncn(CCC(CO)CO)c2n1` [PENCICLOVIR] is 8%; for `Nc1nc(O)c2nnn(C[C@H]3C[C@H]3CO)c2n1` it is 1%.
The same measure, in the same setting: the figure for `Nc1nc(O)c2ncn(CC=C(CO)CO)c2n1` is 0%.
The molecule `Nc1ncnc2c1ncn2C[C@H]1C[C@H]1CO` yielded an inhibition of 0%.
Same read-out and setting: the figure for `Cc1cn(C[C@H]2C[C@H]2CO)c(=O)[nH]c1=O` is 0%; for `Nc1ncnc2c1ncn2C/C=C\CO` it is 3%.

A further assay addresses T1, DNA polymerase catalytic subunit (Herpes simplex virus (type 1 / strain 17)). The assay is described as §2. Also noted: concentration or dose not given beside the values. The following applies: concentration not given here.
Turning to `Nc1nc2c(ncn2CCCCO)c(=O)[nH]1`, the inhibition amounted to 20%.
For the molecule `Nc1nc2c(ncn2COC(CO)CO)c(=O)[nH]1` [GANCICLOVIR], the inhibition turned out to be 60%.
The same measure, in the same setting: the figure for `Nc1nc(O)c(N=O)c(NC[C@H]2C[C@H]2CO)n1` is 8%; for `Nc1nc(O)c2ncn(CCC(CO)CO)c2n1` [PENCICLOVIR] it is 0%; for `Nc1ncnc2c1ncn2CC1CC1(CO)CO` (stereo unspecified) it is 0%.
On to `Nc1nc(O)c2nnn(C[C@H]3C[C@H]3CO)c2n1`, for which the inhibition was 0%.
Still for that read-out and setting: the value for `Nc1nc(O)c2ncn(CC=C(CO)CO)c2n1` was 0%; that for `Nc1ncnc2c1ncn2C[C@H]1C[C@H]1CO` was 5%.
On the same count and under the same terms, the figure for `Cc1cn(C[C@H]2C[C@H]2CO)c(=O)[nH]c1=O` is 22%; for `Nc1ncnc2c1ncn2C/C=C\CO` it is 0%.

System in another assay: not listed separately
The assay is described as §2. The note with it: concentration not given here. In kind it is functional.
Turning to `Nc1ncnc2c1ncn2CC1CC1(CO)CO` (stereo unspecified), the inhibition was 12%.

The next assay is filed under the species Oryctolagus cuniculus. The assay is described as follows: Antiviral activity against HSV-1 cell line (concentration required to prevent viral cytopathic effect in half of primary rabbit kidney cell cultures). In kind it is functional. The following applies: read-out: ED50 (the source's name). For orientation: Damage to the host cells serves as the signal in cytopathic effect assays.
Take `Nc1nc2c(ncn2CCCCO)c(=O)[nH]1`: the EC50 amounted to 3 µg/mL (≈ 13.4 µM).
Still for that read-out and setting: the value for `Nc1nc2c(ncn2COC(CO)CO)c(=O)[nH]1` [GANCICLOVIR] was 3 µg/mL (≈ 11.8 µM); that for `Nc1nc(O)c2ncn(CCC(CO)CO)c2n1` [PENCICLOVIR] was 6 µg/mL (≈ 23.7 µM).
For `Nc1ncnc2c1ncn2CC1CC1(CO)CO` (stereo unspecified), the EC50 was found to be 50 µg/mL (≈ 201 µM).

The species named for the next assay is Oryctolagus cuniculus. Put plainly: Antiviral activity against HSV-1 cell line (concentration required to prevent viral cytopathic effect in half of primary rabbit kidney cell cultures); Not Active at 100 ug/mL.
Conditions: not given
In kind it is functional, organism-based.
On to `Nc1nc(O)c(N=O)c(NC[C@H]2C[C@H]2CO)n1`, for which the ED50 entry was “inactive”.
On the same count and under the same terms, the value for `Nc1nc(O)c2nnn(C[C@H]3C[C@H]3CO)c2n1` was “inactive”.
On the same count and under the same terms, the value for `Nc1nc(O)c2ncn(CC=C(CO)CO)c2n1` was “inactive”.
Same read-out and setting: the entry for `Nc1ncnc2c1ncn2C[C@H]1C[C@H]1CO` is “inactive”; for `Cc1cn(C[C@H]2C[C@H]2CO)c(=O)[nH]c1=O` it is “inactive”.
In the case of `Nc1ncnc2c1ncn2C/C=C\CO`, the NA result was “inactive”.

For a further assay, the target named is T1, DNA polymerase catalytic subunit (Herpes simplex virus (type 1 / strain 17)). The description is as §1. The following applies: Homo sapiens. Format: functional, cell-based.
Take `Nc1nc2c(ncn2CCCCO)c(=O)[nH]1`: the TP was 17%.
The same measure, in the same setting: the figure for `Nc1nc2c(ncn2COC(CO)CO)c(=O)[nH]1` [GANCICLOVIR] is 84%; for `Nc1nc(O)c(N=O)c(NC[C@H]2C[C@H]2CO)n1` it is 21%.
`Nc1nc(O)c2ncn(CCC(CO)CO)c2n1` [PENCICLOVIR]: the TP is 75%.
The same measure, in the same setting: the value for `Nc1ncnc2c1ncn2CC1CC1(CO)CO` (stereo unspecified) was 0%.
On to `Nc1nc(O)c2nnn(C[C@H]3C[C@H]3CO)c2n1`, for which the TP was determined as 55%.
Same read-out and setting: the figure for `Nc1ncnc2c1ncn2C[C@H]1C[C@H]1CO` is 0%.
The same measure, in the same setting: the value for `Cc1cn(C[C@H]2C[C@H]2CO)c(=O)[nH]c1=O` was 0%.
Still for that read-out and setting: the figure for `Nc1ncnc2c1ncn2C/C=C\CO` is 0%.

The species named for a further assay is Oryctolagus cuniculus. The assay is described as follows: Antiviral activity against HSV-2 cell line (concentration required to prevent viral cytopathic effect in half of primary rabbit kidney cell cultures); Not Active at 100 ug/mL.
Conditions: not given
In kind it is functional, organism-based.
For the molecule `Nc1nc(O)c(N=O)c(NC[C@H]2C[C@H]2CO)n1`, the ED50 entry is “inactive”.
Same read-out and setting: the value for `Nc1nc(O)c2nnn(C[C@H]3C[C@H]3CO)c2n1` was “inactive”; that for `Nc1nc(O)c2ncn(CC=C(CO)CO)c2n1` was “inactive”; that for `Nc1ncnc2c1ncn2C[C@H]1C[C@H]1CO` was “inactive”.
Same read-out and setting: the value for `Cc1cn(C[C@H]2C[C@H]2CO)c(=O)[nH]c1=O` was “inactive”.
As to `Nc1ncnc2c1ncn2C/C=C\CO`, the NA entry is “inactive”.

For the next assay, the species on record is Oryctolagus cuniculus. The assay is described as follows: Antiviral activity against HSV-2 cell line (concentration required to prevent viral cytopathic effect in half of primary rabbit kidney cell cultures). In kind it is functional. The note with it: read-out: ED50 (the source's name).
Consider `Nc1nc2c(ncn2CCCCO)c(=O)[nH]1`, for which the EC50 was found to be 12 µg/mL (≈ 53.8 µM).
Same read-out and setting: the value for `Nc1nc2c(ncn2COC(CO)CO)c(=O)[nH]1` [GANCICLOVIR] was 3 µg/mL (≈ 11.8 µM).
With `Nc1nc(O)c2ncn(CCC(CO)CO)c2n1` [PENCICLOVIR], the EC50 was determined as 12 µg/mL (≈ 47.4 µM).
The same measure, in the same setting: the figure for `Nc1ncnc2c1ncn2CC1CC1(CO)CO` (stereo unspecified) is 50 µg/mL (≈ 201 µM).

One may read the inhibition as the change of the read-out against control, counted positive when it falls.

The values are drawn from ChEMBL document CHEMBL1124020, “Synthesis and antiherpetic activity of (+/-)-9-[[(Z)-2-(hydroxymethyl)cyclopropyl]methyl]guanine and related compounds” (1988).
